Measured values as given in PMC6409085, “Three odorant-binding proteins are involved in the behavioral response of Sogatella furcifera to rice plant volatiles” (PeerJ, 2019).
pIC50: −log10 of the molar value. “And” between values parts separate entries of the source, which are not always exact repeats. Equal entries are not always repeated.

Legend:
SfurOBP1 = SfurOBP1 (Sogatella furcifera, UniProt V5T8N5); test: biochemical; format: binding; conditions: for Fluorescence competitive binding assay, fluorescence intensity: OBP1, three replicate columns
SfurOBP1, sequence (V5T8N5 entry or part of it): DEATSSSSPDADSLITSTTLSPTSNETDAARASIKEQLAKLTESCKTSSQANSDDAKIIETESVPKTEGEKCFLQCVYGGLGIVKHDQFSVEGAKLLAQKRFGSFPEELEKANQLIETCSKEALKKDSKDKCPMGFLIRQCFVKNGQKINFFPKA
Method in brief: (§1)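 K1-NPN came from titrating 2.0 µM protein (50 mM Tris-HCl, pH 7.4) with 1-NPN. Odorants at 2-20 µM then competed against 2.0 µM protein plus 2.0 µM 1-NPN for 2 min, with excitation at 337 nm and emission recorded over 390-490 nm. IC50 values were converted to Ki via Ki = IC50/(1 + [1-NPN]/K1-NPN).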

SfurOBP11 = SfurOBP11 (Sogatella furcifera, UniProt V5T6E3); test: biochemical; format: binding
SfurOBP11, sequence (V5T6E3 entry or part of it): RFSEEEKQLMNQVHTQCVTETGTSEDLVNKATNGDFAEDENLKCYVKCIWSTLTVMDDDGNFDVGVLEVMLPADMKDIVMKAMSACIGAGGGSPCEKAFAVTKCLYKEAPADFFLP
Method in brief: as §1

SfurOBP2 = SfurOBP2 (Sogatella furcifera, UniProt V5T759); test: biochemical; format: binding
SfurOBP2, sequence (V5T759 entry or part of it): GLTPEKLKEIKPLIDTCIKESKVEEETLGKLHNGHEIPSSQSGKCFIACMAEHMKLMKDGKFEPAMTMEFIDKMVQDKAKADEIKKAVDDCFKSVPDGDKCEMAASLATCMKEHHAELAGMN
Method in brief: as §1

SfurOBP3 = SfurOBP3 (Sogatella furcifera, UniProt V5T818); test: biochemical; format: binding; conditions: for Fluorescence competitive binding assay, fluorescence intensity: OBP3, three replicate columns
SfurOBP3, sequence (V5T818 entry or part of it): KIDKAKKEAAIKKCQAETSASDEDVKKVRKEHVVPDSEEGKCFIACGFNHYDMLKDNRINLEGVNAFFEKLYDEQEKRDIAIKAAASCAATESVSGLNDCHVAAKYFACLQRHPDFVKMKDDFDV
Method in brief: as §1

S. furcifera adults = test: Y-tube olfactometer behavioral trials; format: in vivo, Sogatella furcifera; conditions: odorant 50 µL/L vs hexane; adults
Method in brief: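 Single S. furcifera adults (2 days post-emergence, starved 0.5 h) chose between odorant (100 µL of 50 µL/L on filter paper) and hexane control in a glass Y-tube, charcoal-filtered humidified air 300 mL/min per arm, 25 ± 1 °C, 50% RH. Choice scored if insect passed half an arm and stayed >1 min within 10 min; 45 insects per compound, chi-squared test.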

Question: What does the source list for `Cc1ccc(C(C)C)cc1` [4-isopropyltoluene]?
Answer: pIC50 (SfurOBP1): < 4.70; Fluorescence competitive binding assay, fluorescence intensity (SfurOBP1; ligand concentration 2 (μM)): 7244 and 8974 and 9151; Fluorescence competitive binding assay, fluorescence intensity (SfurOBP1; ligand concentration 4 (μM)): 8883 and 8922 and 8958; Fluorescence competitive binding assay, fluorescence intensity (SfurOBP1; ligand concentration 6 (μM)): 7592 and 6723 and 7351; Fluorescence competitive binding assay, fluorescence intensity (SfurOBP1; ligand concentration 8 (μM)): 6920 and 7774 and 7302; Fluorescence competitive binding assay, fluorescence intensity (SfurOBP1; ligand concentration 10 (μM)): 7780 and 7649 and 7941; Fluorescence competitive binding assay, fluorescence intensity (SfurOBP1; ligand concentration 12 (μM)): 6330 and 8293 and 7991; Fluorescence competitive binding assay, fluorescence intensity (SfurOBP1; ligand concentration 14 (μM)): 6493 and 6423 and 6689; Fluorescence competitive binding assay, fluorescence intensity (SfurOBP1; ligand concentration 16 (μM)): 5419 and 7344 and 6052; Fluorescence competitive binding assay, fluorescence intensity (SfurOBP1; ligand concentration 18 (μM)): 6795 and 8973 and 7227; Fluorescence competitive binding assay, fluorescence intensity (SfurOBP1; ligand concentration 20 (μM)): 8723 and 7567 and 6306; pIC50 (SfurOBP11): < 4.70; Fluorescence intensity, fluorescence competitive binding assay, OBP11 (SfurOBP11; ligand concentration 2, replicate 1): 35978; Fluorescence intensity, fluorescence competitive binding assay, OBP11 (SfurOBP11; ligand concentration 2, replicate 2): 29566; Fluorescence intensity, fluorescence competitive binding assay, OBP11 (SfurOBP11; ligand concentration 2, replicate 3): 32252; Fluorescence intensity, fluorescence competitive binding assay, OBP11 (SfurOBP11; ligand concentration 4, replicate 1): 30015; Fluorescence intensity, fluorescence competitive binding assay, OBP11 (SfurOBP11; ligand concentration 4, replicate 2): 32067; Fluorescence intensity, fluorescence competitive binding assay, OBP11 (SfurOBP11; ligand concentration 4, replicate 3): 31035; Fluorescence intensity, fluorescence competitive binding assay, OBP11 (SfurOBP11; ligand concentration 6, replicate 1): 30703; Fluorescence intensity, fluorescence competitive binding assay, OBP11 (SfurOBP11; ligand concentration 6, replicate 2): 29596; Fluorescence intensity, fluorescence competitive binding assay, OBP11 (SfurOBP11; ligand concentration 6, replicate 3): 29854; Fluorescence intensity, fluorescence competitive binding assay, OBP11 (SfurOBP11; ligand concentration 8, replicate 1): 26981; Fluorescence intensity, fluorescence competitive binding assay, OBP11 (SfurOBP11; ligand concentration 8, replicate 2): 27991; Fluorescence intensity, fluorescence competitive binding assay, OBP11 (SfurOBP11; ligand concentration 8, replicate 3): 25842; Fluorescence intensity, fluorescence competitive binding assay, OBP11 (SfurOBP11; ligand concentration 10, replicate 1): 25875; Fluorescence intensity, fluorescence competitive binding assay, OBP11 (SfurOBP11; ligand concentration 10, replicate 2): 25879; Fluorescence intensity, fluorescence competitive binding assay, OBP11 (SfurOBP11; ligand concentration 10, replicate 3): 25958; Fluorescence intensity, fluorescence competitive binding assay, OBP11 (SfurOBP11; ligand concentration 12, replicate 1): 23828; Fluorescence intensity, fluorescence competitive binding assay, OBP11 (SfurOBP11; ligand concentration 12, replicate 2): 23071; Fluorescence intensity, fluorescence competitive binding assay, OBP11 (SfurOBP11; ligand concentration 12, replicate 3): 23450; Fluorescence intensity, fluorescence competitive binding assay, OBP11 (SfurOBP11; ligand concentration 14, replicate 1): 21639; Fluorescence intensity, fluorescence competitive binding assay, OBP11 (SfurOBP11; ligand concentration 14, replicate 2): 22165; Fluorescence intensity, fluorescence competitive binding assay, OBP11 (SfurOBP11; ligand concentration 14, replicate 3): 24226; Fluorescence intensity, fluorescence competitive binding assay, OBP11 (SfurOBP11; ligand concentration 16, replicate 1): 19389; Fluorescence intensity, fluorescence competitive binding assay, OBP11 (SfurOBP11; ligand concentration 16, replicate 2): 17044; Fluorescence intensity, fluorescence competitive binding assay, OBP11 (SfurOBP11; ligand concentration 16, replicate 3): 20238; Fluorescence intensity, fluorescence competitive binding assay, OBP11 (SfurOBP11; ligand concentration 18, replicate 1): 24841; Fluorescence intensity, fluorescence competitive binding assay, OBP11 (SfurOBP11; ligand concentration 18, replicate 2): 23918; Fluorescence intensity, fluorescence competitive binding assay, OBP11 (SfurOBP11; ligand concentration 18, replicate 3): 23440; Fluorescence intensity, fluorescence competitive binding assay, OBP11 (SfurOBP11; ligand concentration 20, replicate 1): 24558; Fluorescence intensity, fluorescence competitive binding assay, OBP11 (SfurOBP11; ligand concentration 20, replicate 2): 23570; Fluorescence intensity, fluorescence competitive binding assay, OBP11 (SfurOBP11; ligand concentration 20, replicate 3): 24060; pIC50 (SfurOBP2): < 4.70; Fluorescence competitive binding assay, OBP2 (raw fluorescence reading) (SfurOBP2; ligand concentration 2 (unit not given), replicate column 1 of 3): 17529; Fluorescence competitive binding assay, OBP2 (raw fluorescence reading) (SfurOBP2; ligand concentration 2 (unit not given), replicate column 2 of 3): 17068; Fluorescence competitive binding assay, OBP2 (raw fluorescence reading) (SfurOBP2; ligand concentration 2 (unit not given), replicate column 3 of 3): 16667; Fluorescence competitive binding assay, OBP2 (raw fluorescence reading) (SfurOBP2; ligand concentration 4 (unit not given), replicate column 1 of 3): 17068; Fluorescence competitive binding assay, OBP2 (raw fluorescence reading) (SfurOBP2; ligand concentration 4 (unit not given), replicate column 2 of 3): 16662; Fluorescence competitive binding assay, OBP2 (raw fluorescence reading) (SfurOBP2; ligand concentration 4 (unit not given), replicate column 3 of 3): 16270; Fluorescence competitive binding assay, OBP2 (raw fluorescence reading) (SfurOBP2; ligand concentration 6 (unit not given), replicate column 1 of 3): 17127; Fluorescence competitive binding assay, OBP2 (raw fluorescence reading) (SfurOBP2; ligand concentration 6 (unit not given), replicate column 2 of 3): 17348; Fluorescence competitive binding assay, OBP2 (raw fluorescence reading) (SfurOBP2; ligand concentration 6 (unit not given), replicate column 3 of 3): 16845; Fluorescence competitive binding assay, OBP2 (raw fluorescence reading) (SfurOBP2; ligand concentration 8 (unit not given), replicate column 1 of 3): 17260; Fluorescence competitive binding assay, OBP2 (raw fluorescence reading) (SfurOBP2; ligand concentration 8 (unit not given), replicate column 2 of 3): 16330; Fluorescence competitive binding assay, OBP2 (raw fluorescence reading) (SfurOBP2; ligand concentration 8 (unit not given), replicate column 3 of 3): 16495; Fluorescence competitive binding assay, OBP2 (raw fluorescence reading) (SfurOBP2; ligand concentration 10 (unit not given), replicate column 1 of 3): 16487; Fluorescence competitive binding assay, OBP2 (raw fluorescence reading) (SfurOBP2; ligand concentration 10 (unit not given), replicate column 2 of 3): 17551; Fluorescence competitive binding assay, OBP2 (raw fluorescence reading) (SfurOBP2; ligand concentration 10 (unit not given), replicate column 3 of 3): 16673; Fluorescence competitive binding assay, OBP2 (raw fluorescence reading) (SfurOBP2; ligand concentration 12 (unit not given), replicate column 1 of 3): 14433; Fluorescence competitive binding assay, OBP2 (raw fluorescence reading) (SfurOBP2; ligand concentration 12 (unit not given), replicate column 2 of 3): 15818; Fluorescence competitive binding assay, OBP2 (raw fluorescence reading) (SfurOBP2; ligand concentration 12 (unit not given), replicate column 3 of 3): 14693; Fluorescence competitive binding assay, OBP2 (raw fluorescence reading) (SfurOBP2; ligand concentration 14 (unit not given), replicate column 1 of 3): 14333; Fluorescence competitive binding assay, OBP2 (raw fluorescence reading) (SfurOBP2; ligand concentration 14 (unit not given), replicate column 2 of 3): 14565; Fluorescence competitive binding assay, OBP2 (raw fluorescence reading) (SfurOBP2; ligand concentration 14 (unit not given), replicate column 3 of 3): 13503; Fluorescence competitive binding assay, OBP2 (raw fluorescence reading) (SfurOBP2; ligand concentration 16 (unit not given), replicate column 1 of 3): 12972; Fluorescence competitive binding assay, OBP2 (raw fluorescence reading) (SfurOBP2; ligand concentration 16 (unit not given), replicate column 2 of 3): 13456; Fluorescence competitive binding assay, OBP2 (raw fluorescence reading) (SfurOBP2; ligand concentration 16 (unit not given), replicate column 3 of 3): 13282; Fluorescence competitive binding assay, OBP2 (raw fluorescence reading) (SfurOBP2; ligand concentration 18 (unit not given), replicate column 1 of 3): 13043; Fluorescence competitive binding assay, OBP2 (raw fluorescence reading) (SfurOBP2; ligand concentration 18 (unit not given), replicate column 2 of 3): 13102; Fluorescence competitive binding assay, OBP2 (raw fluorescence reading) (SfurOBP2; ligand concentration 18 (unit not given), replicate column 3 of 3): 13475; Fluorescence competitive binding assay, OBP2 (raw fluorescence reading) (SfurOBP2; ligand concentration 20 (unit not given), replicate column 1 of 3): 13105; Fluorescence competitive binding assay, OBP2 (raw fluorescence reading) (SfurOBP2; ligand concentration 20 (unit not given), replicate column 2 of 3): 12354; Fluorescence competitive binding assay, OBP2 (raw fluorescence reading) (SfurOBP2; ligand concentration 20 (unit not given), replicate column 3 of 3): 13093; pIC50 (SfurOBP3): < 4.70; Fluorescence competitive binding assay, fluorescence intensity (SfurOBP3; ligand concentration 2): 76459 and 72745 and 73014; Fluorescence competitive binding assay, fluorescence intensity (SfurOBP3; ligand concentration 4): 75454 and 75539 and 76517; Fluorescence competitive binding assay, fluorescence intensity (SfurOBP3; ligand concentration 6): 77021 and 76644 and 73341; Fluorescence competitive binding assay, fluorescence intensity (SfurOBP3; ligand concentration 8): 70448 and 67651 and 65820; Fluorescence competitive binding assay, fluorescence intensity (SfurOBP3; ligand concentration 10): 65984 and 64535 and 66083; Fluorescence competitive binding assay, fluorescence intensity (SfurOBP3; ligand concentration 12): 59229 and 62714 and 59705; Fluorescence competitive binding assay, fluorescence intensity (SfurOBP3; ligand concentration 14): 51855 and 54624 and 58162; Fluorescence competitive binding assay, fluorescence intensity (SfurOBP3; ligand concentration 16): 47509 and 50343 and 51946; Fluorescence competitive binding assay, fluorescence intensity (SfurOBP3; ligand concentration 18): 53658 and 55976 and 54775; Fluorescence competitive binding assay, fluorescence intensity (SfurOBP3; ligand concentration 20): 49838 and 49582 and 48822; number of insects choosing hexane arm (S. furcifera adults): 13; number of insects choosing volatilies arm (S. furcifera adults): 11; number of insects failed (no choice) (S. furcifera adults): 16
